The source of these data is patent publication US20220362186A1, “Application of p-Hydroxyphenylpropionic Acid to Prepare Medicine for Preventing and Treating Respiratory Tract Infection” (SUN YAT-SEN UNIVERSITY, priority 2020, published 2022).

≈ marks a conversion by molar mass, not a printed value. Where two headings read alike, the source gives them in different places. Marks after values point to notes of the source that are not given here.

In assay [1] the test system is lipopolysaccharide-induced mouse acute lung injury model. Description: Lipopolysaccharide-induced mouse acute lung injury model. Format: in vivo, Balb/c mice. Conditions: for LDH Activity in Lung / MPO Activity in Lung / MPO Content in Lung / Lung Tissue Dry-to-wet Ratio: 24 h after LPS; for Lung Tissue Dry-to-wet Ratio: mean ± SD. The procedure: Experimental method: the mice were acclimatized for 72 hours in an SPF animal room with constant temperature and constant humidity after purchase. The mice were randomly divided into four groups, that is, a blank control group (n=10), a model control group (n=10), a positive control medicine naringin group (n=11) and a p-hydroxyphenylpropionic acid group (n=11). The naringin group (180 mg/kg) and the p-hydroxyphenylpropionic acid group (51.6 mg/kg) were continuously subjected to intragastric administration once a day, for three days respectively; and the blank control group and the model control group were administered intragastrically with equivoluminal normal saline. The mice were anesthetized through intraperitoneal injection of 0.5 ml of pentobarbital sodium (65 mg/kg) three hours after the last intragastric administration. For the mice in the model group, the naringin group and the p-hydroxyphenylpropionic acid group, 50 μl of lipopolysaccharide 055:B5 solution (0.8 mg/ml) was slowly instilled into the nasal cavities of the mice until being completely absorbed, and a mouse acute lung injury model was established. The mice in the blank control group received nasal drops of the equivoluminal normal saline. The mice were killed by a cervical vertebra dislocation method 24 hours after the lipopolysaccharide modeling was performed, and the whole lung tissue of the mice was collected and put into a sterile centrifugal tube and was stored in liquid nitrogen within 30 seconds. After the lung tissue stored in the liquid nitrogen was placed at room temperature for 30 minutes, a wet weight was weighed. A drying vessel was dried at 80° C. for 24 hours and then was taken out and placed at room temperature for weighing. Then, the drying vessel was taken out after 1 hour of constant weight at 80° C. and was placed at room temperature for weighing. After the weight of the drying vessel was constant, the lung tissue was placed in the drying vessel, was dried at 80° C. for 48 hours and taken out, and was placed at room temperature for weighing. Then, the drying vessel was taken out after 1 hour of constant weight at 80° C. and was placed at room temperature for weighing. […] [formula] [formula] 24 hours after the lipopolysaccharide modeling was performed, the mice were killed and about 400 mg of lung tissue was collected. 1 ml of PBS-10% Triton was added into the lung tissue to serve as a lysis solution for homogenization. After the protein concentration was measured by a BCA protein concentration kit, the sample loading quantity was adjusted to 50 μg of total protein and 100 μl of total volume, and the content of myeloperoxidase (MPO), the activity of the MPO and the activity of lactic dehydrogenase (LDH) in the lung tissue sample were measured by kits. The data in the table are presented as mean±standard deviation, and analysis of difference among multiple groups is realized by a one-way analysis of variance Beforroni method and SPSS 22.0 software.

Assay [2] concerns chronic smoked mice. Kind of assay: Chronic lung injury caused by smoking (chronic smoked mice). The class given is in vivo, Balb/c mice. The following applies: for Cchord / FEV50/FVC: 8 weeks smoking; for Lymphocyte count of alveolar lavage fluid / Monocyte count of alveolar lavage fluid / Neutrophil count of alveolar lavage fluid: BALF; for IL-1β in lung tissue / IL-6 in lung tissue / IL-18 in lung tissue / LTB4 in lung tissue / TNF-α in lung tissue: lung tissue homogenate, ELISA. Background: In an ELISA, binding on a coated surface is turned into a signal by an enzyme label.

For assay [3], the system named is Klebsiella pneumoniae. Description: Antibacterial experiment in vitro, broth microdilution (CLSI). Format: cell-based. Conditions: 20 h, 20-hour cultivation at 37° C. (In general: Dilution methods test growth across graded concentrations, often in twofold steps.)
In assay [4] the test system is Staphylococcus aureus. The assay is described as above. The following applies: 20-hour cultivation at 37° C. Format: cell-based.
The mark [5] stands for this setting: 51.6 mg/kg intragastric once a day for three days.
Setting [6] is: high-dose 60 mg/kg intragastric.
Where [7] appears, read: 180 mg/kg intragastric once a day for three days.

By MIC is commonly meant the least concentration at which growth counts as inhibited.

Take `O=C(O)CCc1ccc(O)cc1` [HPPA, p-Hydroxyphenylpropionic acid]: in assay [1] (setting [5]), the “LDH Activity in Lung” value was 271.19 ± 27.70 ## units/gprot. Moreover, the “MPO Activity in Lung” value in assay [1] (setting [5]) is recorded as 1.756 ± 0.190 ## units/gprot. Further, in assay [1] (setting [5]), the “MPO Content in Lung” value is on record as 324.09 ± 36.33 ## pg/ml. Further, in assay [1] (setting [5]), the “Lung Tissue Dry-to-wet Ratio” value worked out at 4.90 ± 0.52. Further, the Cchord stood at 0.041 ± 0.0029 mL/cm H2O in assay [2] (setting [6]) and 0.0448 ± 0.0041 mL/cm H2O in assay [2] (low-dose 15 mg/kg intragastric). Moreover, the results for the FEV50/FVC in assay [2] (setting [6]) and in assay [2] (low-dose 15 mg/kg intragastric) were 0.333 ± 0.040 and 0.360 ± 0.039, respectively. Further, the “Lymphocyte count of alveolar lavage fluid” value in assay [2] (setting [6]) is 1.014 ± 0.107# 10^5/mL; in assay [2] (low-dose 15 mg/kg intragastric), 1.317 ± 0.117 10^5/mL. Also, the results for the “Monocyte count of alveolar lavage fluid” value in assay [2] (setting [6]) and in assay [2] (low-dose 15 mg/kg intragastric) were 3.100 ± 0.554## 10^5/mL and 3.871 ± 0.544 10^5/mL, respectively. The entries for the “Neutrophil count of alveolar lavage fluid” value in assay [2] (setting [6]) and in assay [2] (low-dose 15 mg/kg intragastric) were 0.743 ± 0.190## 10^5/mL and 1.129 ± 0.287 10^5/mL, respectively. For the same compound, the figures for the “IL-1β in lung tissue” value in assay [2] (setting [6]) and in assay [2] (low-dose 15 mg/kg intragastric) were 35.27 ± 6.509 pg/mL and 47.18 ± 6.822 pg/mL, respectively. Besides, the “IL-6 in lung tissue” value came to 1027 ± 90.56 pg/mL in assay [2] (setting [6]) and 1483 ± 300.3 pg/mL in assay [2] (low-dose 15 mg/kg intragastric). Moreover, the “IL-18 in lung tissue” value turned out to be 157.4 ± 9.098 pg/mL in assay [2] (setting [6]) and 180.1 ± 6.667 pg/mL in assay [2] (low-dose 15 mg/kg intragastric). For the same compound, the “LTB4 in lung tissue” value in assay [2] (setting [6]) was 7241 ± 1024 pg/mL; in assay [2] (low-dose 15 mg/kg intragastric), 8344 ± 1356#^ pg/mL. The “TNF-α in lung tissue” value in assay [2] (setting [6]) is listed as 92.45 ± 13.24 pg/mL; in assay [2] (low-dose 15 mg/kg intragastric), 126.3 ± 10.34 pg/mL. In addition, the MIC in assay [3] (strain K11) was 64 µg/mL (≈ 385 µM); in assay [3] (Klebsiella pneumoniae, strain K1), 128 µg/mL (≈ 770 µM); in assay [3] (Klebsiella pneumoniae, strain K2), 128 µg/mL (≈ 770 µM); in assay [3] (Klebsiella pneumoniae, strain K3), 128 µg/mL (≈ 770 µM); in assay [3] (Klebsiella pneumoniae, strain K4), 128 µg/mL (≈ 770 µM); in assay [3] (Klebsiella pneumoniae, strain K5), 128 µg/mL (≈ 770 µM). In addition, the MIC in assay [3] (Klebsiella pneumoniae, strain K6) was found to be 64 µg/mL (≈ 385 µM); in assay [3] (Klebsiella pneumoniae, strain K7) it was 128 µg/mL (≈ 770 µM); in assay [3] (Klebsiella pneumoniae, strain K8) it was 64 µg/mL (≈ 385 µM); in assay [3] (Klebsiella pneumoniae, strain K9), 64 µg/mL (≈ 385 µM); in assay [3] (Klebsiella pneumoniae, strain K10), 64 µg/mL (≈ 385 µM); in assay [3] (Klebsiella pneumoniae, strain K12), 64 µg/mL (≈ 385 µM). For the same compound, the minimum inhibitory concentration (MIC) in assay [4] (Staphylococcus aureus, strain S4, read-out: MIC) worked out at 64 µg/mL (≈ 385 µM); in assay [4] (strain S1), 64 µg/mL (≈ 385 µM); in assay [4] (strain S2), 64 µg/mL (≈ 385 µM); in assay [4] (strain S3), 64 µg/mL (≈ 385 µM); in assay [4] (strain S5), 64 µg/mL (≈ 385 µM); in assay [4] (strain S6), 64 µg/mL (≈ 385 µM). Also, the MIC in assay [4] (strain S7), in assay [4] (strain S8), in assay [4] (strain S9) and in assay [4] (strain S10) was 64 µg/mL (≈ 385 µM) in each case.
As for `C[C@@H]1O[C@@H](O[C@H]2[C@H](Oc3cc(O)c4c(c3)O[C@H](c3ccc(O)cc3)CC4=O)O[C@H](CO)[C@@H](O)[C@@H]2O)[C@H](O)[C@H](O)[C@H]1O` [Naringin, naringin], in assay [1] (setting [7]), the “LDH Activity in Lung” value stood at 310.93 ± 27.77 units/gprot, the “MPO Activity in Lung” value came out at 1.913 ± 0.262 units/gprot, the “MPO Content in Lung” value stood at 415.85 ± 52.15 pg/mL and the “Lung Tissue Dry-to-wet Ratio” value was found to be 5.15 ± 0.47. Also, the “Effect on lung inflammation, pulmonary edema, neutrophil infiltration and cell necrosis in ALI (in words)” value in assay [1] (180 mg/kg intragastric, P<0.01 vs model control) was “effectively inhibit the progress of lung inflammation in the ALI and alleviate pulmonary edema, local neutrophil infiltration and cell necrosis”.
As for `O=C(Nc1c(Cl)cncc1Cl)c1ccc(OC(F)F)c(OCC2CC2)c1` [Roflumilast, roflumilast, reference compound], in assay [2] (5 mg/kg intragastric), the Cchord was found to be 0.042 ± 0.0054 mL/cm H2O, the FEV50/FVC was found to be 0.367 ± 0.042, the “Lymphocyte count of alveolar lavage fluid” value is on record as 0.914 ± 0.227## 10^5/mL and the “Monocyte count of alveolar lavage fluid” value is given as 3.014 ± 0.319## 10^5/mL. In assay [2] (5 mg/kg intragastric), the “Neutrophil count of alveolar lavage fluid” value is listed as 0.729 ± 0.180## 10^5/mL, the “IL-1β in lung tissue” value is listed as 34.02 ± 7.098 pg/mL, the “IL-6 in lung tissue” value is 963.2 ± 188.8 pg/mL and the “IL-18 in lung tissue” value turned out to be 143.4 ± 18.34 pg/mL. Also, in assay [2] (5 mg/kg intragastric), the “LTB4 in lung tissue” value came to 6809 ± 670.8 pg/mL and the “TNF-α in lung tissue” value was 102.4 ± 17.34 pg/mL.
